Results taken from patent US20080176866A1, “NOVEL HETARYL-PHENYLENEDIAMINE-PYRIMIDINES AS PROTEIN KINASE INHIBITORS” (priority 2006, published 2008).

How the values were obtained:
[1] = target: T1, CDK2/CycE (Homo sapiens, UniProt P24941); experiment: CDK2/CycE kinase assay (HTRF); format: biochemical; settings: 10 μM ATP
T1 construct: GST; purchased ProQinase GmbH, Freiburg; host or cells: baculovirus-infected insect cells (Sf9)
Procedure: The CDK2/CycE inhibitory activity of the substances of this invention was measured in the CDK2/CycE-HTRF assay (HTRF=Homogeneous Time Resolved Fluorescence) described in the following paragraphs.
Recombinant CDK2-GST and CycE-GST fusion proteins purified from baculovirus-infected insect cells (Sf9) were purchased from ProQinase GmbH, Freiburg. The substrate used for the kinase reaction was the biotinylated peptide biotin-Ttds-YISPLKSPYKISEG (C terminus in amide form) which can be purchased for example from JERINI Peptide Technologies (Berlin).
CDK2/CycE was incubated in the presence of various concentrations of test substances in 5 μL of assay buffer [50 mM Tris/HCl pH 8.0, 10 mM MgCl2, 1.0 mM dithiothreitol, 0.1 mM sodium orthovanadate, 10 μM adenosine triphosphate (ATP), 0.75 μM substrate, 0.01% (v/v) Nonidet-P40 (Sigma), 1% (v/v) dimethyl sulphoxide] at 22° C. for 60 min. The concentration of CDK2/CycE was adapted to the particular activity of the enzyme and adjusted so that the assay operated in the linear range. Typical concentrations were in the region of 1 ng/ml. The reaction was stopped by adding 5 μl of a solution of HTRF detection reagents (0.2 μM streptavidin-XLent and 3.4 nM phospho-(Ser) CDKs substrate antibody [product #2324B, Cell Signaling Technology, Danvers, Mass., USA] and 4 nM Prot-A-EuK [protein A labelled with Europium cryptate from C is biointernational, France, product No. 61 PRAKLB]) in aqueous EDTA solution (100 mM EDTA, 800 mM KF, 0.2% (w/v) bovine serum albumin (BSA) in 100 mM HEPES/NaOH pH 7.0).
(§1) The resulting mixture was incubated at 22° C. for 1 h in order to allow formation of a complex of the biotinylated phosphorylated substrate and the detection reagents. The amount of phosphorylated substrate was then estimated by measuring the resonance energy transfer from the Prot-A-EuK to the streptavidin-XLent. For this purpose, the fluorescence emissions at 620 nm and 665 nm after excitation at 350 nm were measured in an HTRF measuring instrument, e.g. a Rubystar (BMG Labtechnologies, Offenburg, Germany) or a Viewlux (Perkin-Elmer). The ratio of the emissions at 665 nm and at 622 nm was taken as a measure of the amount of phosphorylated substrate. The data were normalized (enzymic reaction without inhibitor=0% inhibition, all other assay components but no enzyme=100% inhibition) and IC50 values were calculated with a 4-parameter fit using an inhouse software.

[2] = target: T2, human Aurora-C (Homo sapiens, UniProt Q9UQB9); experiment: Aurora-C kinase assay (HTRF); format: biochemical; settings: GST-human Aurora-C, 10 μM ATP
T2 construct: GST; made in house; host or cells: transiently transfected HEK293 cells
T2 sequence (Q9UQB9 1-309): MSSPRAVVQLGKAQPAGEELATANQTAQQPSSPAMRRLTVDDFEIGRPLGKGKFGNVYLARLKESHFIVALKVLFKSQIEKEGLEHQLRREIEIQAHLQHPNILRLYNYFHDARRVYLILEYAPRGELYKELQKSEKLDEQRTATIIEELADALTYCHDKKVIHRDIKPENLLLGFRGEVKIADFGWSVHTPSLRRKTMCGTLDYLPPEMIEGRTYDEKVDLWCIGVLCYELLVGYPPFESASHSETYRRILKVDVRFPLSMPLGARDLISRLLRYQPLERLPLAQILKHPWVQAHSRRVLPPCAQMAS
Procedure: The Aurora-C inhibitory activity of the substances of this invention was measured in the Aurora-C-HTRF assay (HTRF=Homogeneous Time Resolved Fluorescence) described in the following paragraphs.
Recombinant fusion protein of GST and human Aurora-C was expressed in transiently transfected HEK293 cells and purified by affinity chromatography on glutathione-Sepharose. The substrate used for the kinase reaction was the biotinylated peptide biotin-Ttds-FMRLRRLSTKYRT (C terminus in amide form) which can be purchased for example from JERINI Peptide Technologies (Berlin). Aurora-C was incubated in the presence of various concentrations of test substances in 5 μL of assay buffer [25 mM Hepes/NaOH pH 7.4, 0.5 mM MnCl2, 2.0 mM dithiothreitol, 0.1 mM sodium orthovanadate, 10 μM adenosine triphosphate (ATP), […] substrate, 0.01% (v/v) TritonX-100 (Sigma), 0.05% (w/v) bovine serum albumin (BSA), 1% (v/v) dimethyl sulphoxide] at 22° C. for 60 min. The concentration of Aurora-C was adapted to the particular activity of the enzyme and adjusted so that the assay operated in the linear range. Typical concentrations were in the region of 0.3 nM. The reaction was stopped by adding 5 μl of a solution of HTRF detection reagents (0.2 μM streptavidin-XLent and 1.4 nM anti-phospho-(Ser/Thr)-Akt substrate-Eu-cryptate (C is biointernational, France, product No. 61P02KAE), a Europium-cryptate-labelled phospho-(Ser/Thr)-Akt substrate antibody [product #9611B, Cell Signaling Technology, Danvers, Mass., USA]) in aqueous EDTA solution (40 mM EDTA, 400 mM KF, 0.05% (w/v) bovine serum albumin (BSA) in 25 mM HEPES/NaOH pH 7.0).
as §1, with “anti-phospho-(Ser/Thr)-Akt substrate-Eu cryptate” for “Prot-A-EuK”

[3] = target: T3, KDR kinase (Homo sapiens, UniProt P35968); experiment: KDR kinase assay (HTRF); format: biochemical; settings: KDR kinase-GST, 10 μM ATP
T3 construct: GST; purchased ProQinase GmbH, Freiburg; host or cells: baculovirus-infected insect cells (Sf9)
Procedure: The KDR-inhibitory activity of the substances of this invention was measured in the KDR-HTRF assay (HTRF=Homogeneous Time Resolved Fluorescence) described in the following paragraphs.
Recombinant KDR kinase-GST fusion protein purified from baculovirus-infected insect cells (Sf9) was purchased from ProQinase GmbH, Freiburg. The substrate used for the kinase reaction was the biotinylated peptide biotin-Ahx-DFGLARDMYDKEYYSVG (C terminus in acid form) which can be purchased for example from Biosynthan GmbH (Berlin-Buch, Germany).
KDR kinase was incubated in the presence of various concentrations of test substances in 5 μL of assay buffer [50 mM Hepes/NaOH pH 7.0, 25 mM MgCl2, 5 mM MnCl2, 1.0 mM dithiothreitol, 0.1 mM sodium orthovanadate, 10 μM adenosine triphosphate (ATP), 0.5 μM substrate, 0.001% (v/v) Nonidet-P40 (Sigma), 1% (v/v) dimethyl sulphoxide] at 22° C. for 45 min. The concentration of KDR was adapted to the particular activity of the enzyme and adjusted so that the assay operated in the linear range. The reaction was stopped by adding 5 μl of a solution of HTRF detection reagents (0.1 μM streptavidin-XLent and 2 nM PT66-Eu chelate, a Europium chelate-labelled anti-phospho-tyrosine antibody from Perkin Elmer) in aqueous EDTA solution (125 mM EDTA, 0.2% (w/v) bovine serum albumin (BSA) in 50 mM HEPES/NaOH pH 7.0).
as §1, with “of” for “of a complex of”, “streptavidin-XLent and PT66-Eu chelate.” for “detection reagents.”, “PT66-Eu chelate” for “Prot-A-EuK”

[4] = target: T4, CDK1/CycB (Homo sapiens, UniProt P06493); experiment: CDK1/CycB kinase assay; format: biochemical; settings: 0.5 μM ATP, histone IIIS, 33P filter assay
T4 construct: GST; purchased ProQinase GmbH, Freiburg; host or cells: baculovirus-infected insect cells (Sf9)
Procedure: Recombinant CDK1- and CycB-GST fusion proteins, purified from baculovirus-infected insect cells (Sf9), were purchased from ProQinase GmbH, Freiburg. The histone IIIS used as kinase substrate can be purchased from Sigma.
CDK1/CycB (5 ng/μL) was incubated in the presence of various concentrations of test substances (0 μM, and within the range 0.01-100 μM) in 40 μL of assay buffer [50 mM Tris/HCl pH 8.0, 10 mM MgCl2, 0.1 mM Na ortho-vanadate, 1.0 mM dithiothreitol, 0.025% PEG 20000, 0.5 μM ATP, 10 μM histone IIIIS, 0.2 μCi/measurement point ^33P-gamma ATP, 0.05% NP40, 1.25% dimethyl sulphoxide] at 22° C. for 10 min. The reaction was stopped by adding EDTA solution (250 mM, pH 8.0, 15 μl/measurement point).
15 μl of each reaction mixture were loaded onto P30 filter strips (from Wallac), and non-incorporated ^33P-ATP was removed by washing the filter strips three times in 0.5% strength phosphoric acid for 10 min each time. After the filter strips had been dried at 70° C. for 1 hour, the filter strips were covered with scintillator strips (MeltiLex™ A, from Wallac) and baked at 90° C. for 1 hour. The amount of incorporated ^33P (substrate phosphorylation) was determined by scintillation measurement in a gamma radiation counter (Wallac).
The measured data were normalized to 0% inhibition (enzyme reaction without inhibitor) and 100% inhibition (all assay components except enzyme). The IC50 values were determined by means of a 4-parameter fit using the company's own software.

[5] = test system: human MCF7 breast tumour cells; experiment: MCF7 proliferation assay; format: cell-based; settings: 96 h, 4 days incubation, crystal violet staining
Procedure: Cultivated human MCF7 breast tumour cells (ATCC HTB-22) were plated out in a density of 5000 cells/measurement point in 200 μl of growth medium (RPMI1640, 10% foetal calf serum, 2 mU/mL insulin, 0.1 nM oestradiol) in a 96-well multititre plate. After 24 hours, the cells from a plate (zero plate) were stained with crystal violet (see below), while the medium in the other plates was replaced by fresh culture medium (200 μl) to which the test substances had been added in various concentrations (0 μM, and in the range 0.01-30 μM; the final concentration of the solvent dimethyl sulphoxide was 0.5%). The cells were incubated in the presence of the test substances for 4 days. The cell proliferation was determined by staining the cells with crystal violet: the cells were fixed by adding 20 μl/measurement point of an 11% strength glutaraldehyde solution at room temperature for 15 min. After the fixed cells had been washed three times with water, the plates were dried at room temperature. The cells were stained by adding 100 μl/measurement point of a 0.1% strength crystal violet solution (pH adjusted to pH 3 by adding acetic acid). After the stained cells had been washed three times with water, the plates were dried at room temperature. The dye was dissolved by adding 100 μl/measurement point of a 10% strength acetic acid solution, and the extinction was determined by photometry at a wavelength of 595 nm. The percentage change in cell growth was calculated by normalizing the measurements to the extinctions of the zero point plate (=0%) and the extinction of the untreated (0 μM) cells (=100%). The IC50 values were determined by means of a 4-parameter fit using the company's own software.

T3 sequence (P35968 807-1356 limits assumed): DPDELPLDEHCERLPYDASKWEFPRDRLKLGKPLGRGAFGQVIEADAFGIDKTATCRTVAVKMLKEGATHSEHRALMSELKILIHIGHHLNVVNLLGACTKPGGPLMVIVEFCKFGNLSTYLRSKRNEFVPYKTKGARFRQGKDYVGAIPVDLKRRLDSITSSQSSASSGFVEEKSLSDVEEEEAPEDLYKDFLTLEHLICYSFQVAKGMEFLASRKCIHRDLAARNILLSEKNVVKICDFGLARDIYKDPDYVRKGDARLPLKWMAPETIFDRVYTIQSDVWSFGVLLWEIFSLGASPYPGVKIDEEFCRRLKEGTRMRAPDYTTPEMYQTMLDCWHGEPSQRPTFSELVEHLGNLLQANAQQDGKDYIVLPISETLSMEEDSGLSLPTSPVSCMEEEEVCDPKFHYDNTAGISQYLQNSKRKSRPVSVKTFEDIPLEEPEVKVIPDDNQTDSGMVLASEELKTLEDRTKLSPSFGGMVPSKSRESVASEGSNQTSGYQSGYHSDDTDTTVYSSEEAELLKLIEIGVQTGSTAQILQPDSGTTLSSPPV
T4 sequence (P06493 whole entry): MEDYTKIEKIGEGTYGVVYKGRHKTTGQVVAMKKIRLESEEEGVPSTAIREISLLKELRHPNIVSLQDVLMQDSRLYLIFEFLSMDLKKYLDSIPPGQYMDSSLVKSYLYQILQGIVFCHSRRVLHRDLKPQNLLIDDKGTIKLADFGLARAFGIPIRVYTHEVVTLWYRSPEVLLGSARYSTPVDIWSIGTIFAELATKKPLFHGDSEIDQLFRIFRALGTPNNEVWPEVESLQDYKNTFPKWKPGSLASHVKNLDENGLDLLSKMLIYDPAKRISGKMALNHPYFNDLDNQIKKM
T4 sequence (P14635 whole entry partner): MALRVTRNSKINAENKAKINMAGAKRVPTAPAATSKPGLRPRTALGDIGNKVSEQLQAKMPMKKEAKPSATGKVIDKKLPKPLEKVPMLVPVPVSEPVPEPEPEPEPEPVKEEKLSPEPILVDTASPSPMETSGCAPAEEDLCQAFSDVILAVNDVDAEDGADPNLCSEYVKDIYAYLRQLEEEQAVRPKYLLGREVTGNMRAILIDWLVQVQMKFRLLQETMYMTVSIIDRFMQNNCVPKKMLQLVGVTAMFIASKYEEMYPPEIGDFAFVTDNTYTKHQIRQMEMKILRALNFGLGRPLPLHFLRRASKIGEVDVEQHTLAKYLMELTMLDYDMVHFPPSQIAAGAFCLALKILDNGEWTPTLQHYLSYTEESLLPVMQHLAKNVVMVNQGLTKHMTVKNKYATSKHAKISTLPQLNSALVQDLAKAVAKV

| IC50 [1] [nM] | IC50 [2] [nM] | IC50 [3] [nM] | IC50 [4] [nM] | IC50 [5] [nM] | SMILES |
| --- | --- | --- | --- | --- | --- |
| 670 | 120 | 23 |  |  | Brc1cnc(Nc2cccc(Nc3ncc(Br)c(NCCc4c[nH]cn4)n3)c2)nc1NCCc1c[nH]cn1 [Example 28] |
| 60 |  | 1400 | 98 | 800 | Cc1cc(C)nc(Sc2ccc(Nc3ncc(Br)c(O[C@H](C)[C@@H](C)O)n3)cc2)n1 [Example 41] |
